Source: publication PMC6561471 (The Lancet. Oncology, 2018)
“Also recorded” adds a separate entry of the source.

Columns and labels:
[1] = system: patients with recurrent or metastatic HNSCC; experiment: phase 1b dose escalation; type: in vivo; conditions: with fixed dose of cetuximab; doses 200-800 mg/day; assessed in cycle 1
[2] = system: patients with recurrent or metastatic HNSCC; experiment: adverse events graded by NCI-CTCAE version 4.0, all cycles of treatment
[3] = system: nasopharyngeal cancer; conditions: pazopanib tablet formulation 800 mg/day, monotherapy; cited from earlier work
[4] = suspension formulation compared with tablet; cited from earlier work
[5] = system: recurrent or metastatic HNSCC; conditions: single-arm study; cited from earlier work
[6] = system: recurrent or metastatic HNSCC; conditions: first-line treatment; cited from earlier work

## Cc1ccc(Nc2nccc(N(C)c3ccc4c(C)n(C)nc4c3)n2)cc1S(N)(=O)=O [pazopanib]
[1]
  maximum tolerated dose of pazopanib: not reached
[2]; all 31 patients
  grade 4 adverse events attributable to pazopanib: no grade 4 adverse events
[2]; all cycles
  most common grade 3 adverse events attributable to pazopanib: hypertension, anaemia, fatigue, hypoalbuminaemia, and venous thromboembolism; also recorded: hypertension, anaemia, fatigue, hypoalbuminaemia, neutropenia, and diarrhoea
[3]
  disease control, patients: 55%
[4]
  decrease of time taken to reach Cmax (Tmax): 50%
  increase of area under the curve (AUC)(0–72 h): 33%
  increase of maximum plasma concentration (Cmax): 29%

## CNC(=O)c1cc(Oc2ccc(NC(=O)Nc3ccc(Cl)c(C(F)(F)F)c3)cc2)ccn1 [sorafenib]
[5]
  activity as monotherapy: modest activity

## CCN(CC)CCNC(=O)c1c(C)[nH]c(/C=C2\C(=O)Nc3ccc(F)cc32)c1C [sunitinib]
[5]
  activity as monotherapy: modest activity

## bevacizumab
[6]
  effect of addition of bevacizumab to chemotherapy: improvement of progression-free survival and overall survival
